According to ChEMBL document CHEMBL1135985, “Synthesis, pharmacokinetics, efficacy, and rat retinal toxicity of a novel mitomycin C-triamcinolone acetonide conjugate” (J Med Chem, 2002):

How the values were obtained:
NIH3T3 [1] = test: Maximal percent of fibroblast cell growth inhibition using antiproliferative assay; type: functional, Mus musculus
NIH3T3 [2] = test: Inhibition of NIH 3T3 cell growth required to induce 50% of maximum response using antiproliferative assay; type: functional, cell-based; conditions: Mus musculus

SMILES: CO[C@@]12[C@H](COC(N)=O)C3=C(C(O)=C(C)C(=N)C3=O)N1C[C@H]1[C@@H]2N1C(=O)CCCC(=O)OCC(=O)[C@@]12OC(C)(C)O[C@@H]1CC1C3CCC4=CC(=O)C=C[C@]4(C)[C@@]3(F)[C@@H](O)C[C@@]12C (stereo partly drawn)
- Inhibition (NIH3T3 [1]): 67%
- IC50 (NIH3T3 [2]): 2.4 µM

SMILES: CO[C@@]12[C@H](COC(N)=O)C3=C(C(=O)C(C)=C(N)C3=O)N1C[C@@H]1N[C@@H]12 [MITOMYCIN]
- Inhibition (NIH3T3 [1]): 88%
- IC50 (NIH3T3 [2]): 1.7 µM

SMILES: CC1(C)O[C@@H]2CC3C4CCC5=CC(=O)C=C[C@]5(C)[C@@]4(F)[C@@H](O)C[C@]3(C)[C@]2(C(=O)CO)O1.CO[C@@]12[C@H](COC(N)=O)C3=C(C(=O)C(C)=C(N)C3=O)N1C[C@@H]1N[C@@H]12 (stereo partly drawn) [MIXTURE OF MMC AND TA]
- Inhibition (NIH3T3 [1]): 83%
- IC50 (NIH3T3 [2]): 1.6 µM

SMILES: CC1(C)O[C@@H]2C[C@H]3[C@@H]4CCC5=CC(=O)C=C[C@]5(C)[C@@]4(F)[C@@H](O)C[C@]3(C)[C@]2(C(=O)CO)O1 [TRIAMCINOLONE ACETONIDE]
- Inhibition (NIH3T3 [1]): 25%
- IC50 (NIH3T3 [2]): 2.5 µM
